From US7390795B2, “Treatment and prevention of tissue damage” (Pentraxin Therapeutics Limited, priority 2000, dated 2008)
Like-named read-outs stand apart in the source and are kept apart here.

How the values were obtained:
[1] = molecular target: T1, C-reactive protein (CRP) (Homo sapiens, UniProt P02741); experiment: Inhibition of binding of 125I radiolabelled CRP to enzyme modified low density lipoprotein immobilized in microtitre plates
T1 construct: from tissue; host or cells: Human material
T1 sequence (P02741 19-224): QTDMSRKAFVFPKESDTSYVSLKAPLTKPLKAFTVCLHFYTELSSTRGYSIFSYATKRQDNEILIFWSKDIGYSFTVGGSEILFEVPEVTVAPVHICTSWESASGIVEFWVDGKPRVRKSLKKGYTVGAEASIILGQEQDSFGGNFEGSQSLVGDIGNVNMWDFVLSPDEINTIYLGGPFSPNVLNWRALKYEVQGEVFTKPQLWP
Method: Screening for Inhibitors of Binding of ^125I Radiolabelled CRP to Enzyme Modified Low Density Lipoprotein Immobilized in Microtitre Plates. […] However, likely critical ligands of importance in vivo in the pathogenesis of atherothrombosis, are modified forms of low density lipoprotein. […] All wells were then washed three times with 200 μl volumes of PBS before blocking by incubation for 1 h at room temperature with 100 μl per well of 0.2 m Tris pH 8.0. The wells were then washed again 3 times with 200 μl volumes of PBS and finally emptied before adding to each one 100 μl volumes of the following reagents.

[2] = system: experimental acute myocardial infarction produced by coronary artery ligation
From the text: Induction and Measurement of Myocardial Infarction. Female Wistar rats bred at ICSM, Hammersmith campus were used at age 9-10 wk and weighed 230-280 g. […] All animals were carefully examined and were healthy before being fasted overnight prior to surgery. General anesthesia was induced with inhaled isoflurane and supplemental oxygen was provided at 1.0 liter/min. The chest was opened through the sixth intercostal space, anesthesia was discontinued but supplemental oxygen continued at 0.5 liter/min, and the pericardium was opened to allow the heart to be lifted cut of the thorax. The left anterior descending coronary artery was immediately ligated at a constant distance just below the atrium with a 5/0 silk suture, the heart was replaced and the chest closed whilst active ventilation with 100% oxygen was continued. The duration of pneumothorax was about 30 s. […] Buprenorphine 0.05 mg/kg was given immediately for post-operative analgesia and repeated 12 hourly.
Deep anesthesia was induced with isoflurane and the hearts were excised while still beating in sinus rhythm and immediately arrested in diastole by immersion in 10 ml of 30 mM KCl. They were then cleaned of any extraneous adherent tissue and weighed before being briefly chilled at −20° C. to produce sufficient rigidity to facilitate cutting into defined sections. Each heart was cut into four slices of equal thickness perpendicular to the course of the left coronary artery, starting from the apex of the heart and ending at the position of the ligature around that artery. These slices were designated A, B, C, and D starting from the apex, and each was washed with pure water and then immersed in 0.02 M phosphate buffer pH 7.4 containing 0.5 mg/ml of nitroblue tetrazolium (NBT) (Sigma) at 37° C. for 30 min. NBT stains viable but not infarcted myocardium.
After staining with NBT the slices were washed briefly in cold water before fixation in 10% buffered formalin for 48 h, and the proximal cut surface of each slice was then imaged under standard conditions with a high resolution digital camera. The captured images were coded and analyzed ‘blind’ without knowledge by the operators of the treatment received by the rat in question. Lines were drawn around the total area of the slice, the NBT negative infarct zone, and any parts of the image to be excluded from the estimation including valves, chordae tendinae, shadows and edges, and the area of the infarct was determined as a percentage of the total area. […] Statistical significance of differences between infarct sizes in different treatment groups within each experiment were sought by one way ANOVA and by Bonferroni t-tests.
In Vivo Treatments. […] Human CRP or SAP were injected i.p. at 40 mg/kg 1 h after coronary artery ligation and then at 24 h intervals until the rats were killed on day 5. The proteins were dissolved in 10 mM Tris, 140 mM NaCl, pH 8.0, also containing 2 mM CaCl2 in the case of human CRP, and the control rats received injections of the buffer alone at the same intervals.

[3] = Plasma clearance and serum concentration of injected human CRP and SAP in rats
Method: Human CRP or SAP were injected i.p. at 40 mg/kg 1 h after coronary artery ligation and then at 24 h intervals until the rats were killed on day 5. The proteins were dissolved in 10 mM Tris, 140 mM NaCl, pH 8.0, also containing 2 mM CaCl2 in the case of human CRP, and the control rats received injections of the buffer alone at the same intervals. […] Plasma clearance of human CRP was also studied in the same protocol in normal unoperated rats that had received cobra venom factor 24 h previously.

[4] = Experiment 2, 40 mg/kg i.p. 1 h after ligation then every 24 h, day 5
[5] = Experiment 2, 5 rats treated, 40 mg/kg i.p. daily

Row | Molecule | Inhibition of CRP binding to enzyme modified LDL, in words [1] | Percent inhibition of binding of radiolabelled CRP to immobilized enzyme modified low density lipoprotein ([1]; compound molarity 1 μM) | Percent inhibition of binding of radiolabelled CRP to immobilized enzyme modified low density lipoprotein ([1]; compound molarity 10 μM) | Percent inhibition of binding of radiolabelled CRP to immobilized enzyme modified low density lipoprotein ([1]; compound molarity 100 μM) | Percent inhibition of binding of radiolabelled CRP to immobilized enzyme modified low density lipoprotein ([1]; compound molarity 1 mM) | Percent inhibition of binding of radiolabelled CRP to immobilized enzyme modified low density lipoprotein ([1]; compound molarity 10 mM) | Infarct size mean (SD) % [2, 4] | Day 5 survivors [2, 5] | further results
1 | O=C(O)CN(CCN(CC(=O)O)CC(=O)O)CC(=O)O [EDTA] | All binding was inhibited |  |  |  |  |  |  |  | 
2 | CCCCCCCCCCCCCCCCOP(=O)([O-])OCC[N+](C)(C)C [Hexadecyl phosphocholine, hexadecyl phosphocholine] |  | 0 | 0 | 76 | 73 | 94 |  |  | IC50 for inhibition of CRP binding to enzyme modified LDL ([1]; stated in words): in the micromolar range
3 | NCCOP(=O)(O)O [Phosphoethanolamine, phosphoethanolamine] | inhibition at high concentration, but only modest effects when diluted | 0 | 0 | 39 | 90 | 92 |  |  | 
4 | N[C@@H](COP(=O)(O)O)C(=O)O [Phosphoserine, phosphoserine] |  | 0 | 0 | 0 | 0 | 38 |  |  | 
5 | Human CRP: isolated pure human C-reactive protein, a plasma pentraxin |  |  |  |  |  |  | 17.6 (0.4) % | 3 | Infarct size mean (SD) % ([2]; Experiment 1, 40 mg/kg i.p. 1 h after ligation then every 24 h, day 5): 21.2 (2.0) %; Day 5 survivors ([2]; Experiment 1, 5 rats treated, 40 mg/kg i.p. daily): 4; Day 5 survivors ([2]; Table 3 experiment, 5 or 6 rats treated): 3; Infarcts larger than in control untreated animals ([2]; complement sufficient rats, day 5, Table 3 experiment): approximately 40%; Clinical condition ([2]; coronary artery ligated rats, 40 mg/kg i.p.): rapidly became clinically less well than buffer-treated controls; Infarcts larger than in control rats treated with buffer or human SAP ([2]; day 5, Table 2 experiments): about 40%; Effect on the reduced infarct size in decomplemented rats ([2]; rat, in vivo): no effect at all; Infarct size mean (SD) % ([2]; rat, in vivo): 19.7 (1.6) %; Clinical condition ([2]; rats not operated on, same doses): absolutely no ill effects; Serum concentration of the injected protein ([3]; coronary artery ligated rats killed 24 h after the last of 5 daily 40 mg/kg i.p. injections): 13000 to 53000 ng/mL; Plasma clearance in decomplemented rats ([3]; single 40 mg/kg i.p., cobra venom factor 250 U/kg 24 h beforehand, unoperated rats): not affected by complement depletion
6 | Human SAP: human serum amyloid P component, pentraxin closely related to CRP |  |  |  |  |  |  | 12.4 (1.9) % | 5 | Clinical condition ([2]; normal or coronary artery ligated rats): no adverse clinical effects
